According to patent US20230338370A1, “Treatment of Cancer with TOR Kinase Inhibitors” (Signal Pharmaceuticals, LLC, priority 2012, published 2023):

Key:
Assay type in all cases: cell-based
CAL-85-1 [1] = assay: Growth inhibition assay for Breast Cancer (BC) Cell lines; settings: Homo sapiens; CAL-85-1, TN; 96 hours, Cell Titer-Glo
Description: (§1) Growth inhibition assay for Breast Cancer (BC) Cell lines. Compounds 1 (a TOR kinase inhibitor set forth herein having molecular formula C16H16N8O) and 2 (a TOR kinase inhibitor set forth herein having molecular formula C17H18N8O2) were dissolved in dimethyl sulfoxide (DMSO) to prepare a 10 mM stock solution. A serial titration was performed to produce a working concentration range of 1.5 µM to 10 mM. Aliquots to produce final concentrations of 1.5 nM to 10 µM were spotted via an acoustic dispenser (EDC ATS-100) into an empty 384-well plate. Compounds 1 and 2 were spotted in a 10-point serial dilution fashion (3-fold dilution) in duplicate within the plate. The DMSO concentration was kept constant for a final assay concentration of 0.1% DMSO. Plates were replicated for use with different cell lines and testing periods. After compound plate replication, all plates were sealed (Agilent ThermoLoc) and stored at -20° C. for up to 1 month. […] When ready for testing, plates were removed from the freezer, thawed, and unsealed just prior to the addition of the test cells. Prior to testing, cells were grown and expanded in culture flasks to provide sufficient amounts of starting material. Cells were then diluted to the appropriate densities and added directly to the compound-spotted 384-well plates. Cells were allowed to grow for 96 hours at 37° C./5% CO2. At the time when compound was added (t0), initial cell number was assessed via a viability assay (Cell Titer-Glo) by quantifying the level of luminescence generated by ATP present in viable cells. After 96 hours, cell viability of compound-treated cells was assessed via Cell Titer-Glo and luminescence measurement. Cell lines were assayed for growth inhibition by Compounds 1 and 2 in at least 3 independent tests. A control cell line (the lung tumor cell line, A549) was included in each of the assays. The compound response against this control cell line was monitored closely to enable comparison of the data generated through the assay period. All data were normalized and presented as a percentage of the DMSO-treated cells. Results were then expressed as a GI50 value. The GI50 value corrects for the cell count at time zero.

HCC1143 [2] = assay: as above; settings: Homo sapiens; HCC1143, TN; 96 hours, Cell Titer-Glo
Description: as §1

HCC70 [3] = assay: as above; settings: Homo sapiens; HCC70, TN; 96 hours, Cell Titer-Glo
Description: as §1

MDA-MB-231 [4] = assay: as above; settings: Homo sapiens; MDA-MB-231, TN; 96 hours, Cell Titer-Glo
Description: as §1

BT-20 = assay: Apoptosis assay for BC Cell lines (Caspase 3/7-Glo); settings: BT-20, TN; 24 hours
Description: (§2) Apoptosis assay for BC Cell lines. Prior to testing, cells were grown and expanded in culture flasks to provide sufficient amounts of starting material. Cells were then diluted to their desired densities and added directly to compound-spotted 384-well plates. Cells were allowed to grow for 24 hours in 5% CO2 at 37° C. The apoptotic response was assessed by quantifying the activities of caspase 3 and caspase 7 (Caspase 3/7-Glo) in treated cells and control cells at the 24-hour time point. All data was normalized and represented as a value relative to the DMSO-treated cells. Results were then expressed as CalX, which is the minimum compound concentration required to double the levels of caspase 3/7 relative to those of the DMSO-treated cells during their treatment period.

BT-549 = assay: as above; settings: BT-549, TN; 24 hours
Description: as §2

CAL-120 = assay: as above; settings: CAL-120, TN; 24 hours
Description: as §2

CAL-148 = assay: as above; settings: CAL-148, TN; 24 hours
Description: as §2

CAL-51 = assay: as above; settings: CAL-51, TN; 24 hours
Description: as §2

CAL-85-1 [5] = assay: as above; settings: CAL-85-1, TN; 24 hours
Description: as §2

DU4475 = assay: as above; settings: DU4475, TN; 24 hours
Description: as §2

HCC1143 [6] = assay: as above; settings: HCC1143, TN; 24 hours
Description: as §2

HCC1187 = assay: as above; settings: HCC1187, TN; 24 hours
Description: as §2

HCC1806 = assay: as above; settings: HCC1806, TN; 24 hours
Description: as §2

HCC1937 = assay: as above; settings: HCC1937, TN; 24 hours
Description: as §2

HCC2157 = assay: as above; settings: HCC2157, TN; 24 hours
Description: as §2

HCC38 = assay: as above; settings: HCC38, TN; 24 hours
Description: as §2

HCC70 [7] = assay: as above; settings: HCC70, TN; 24 hours
Description: as §2

HDQ-P1 = assay: as above; settings: HDQ-P1, TN; 24 hours
Description: as §2

HS578T = assay: as above; settings: TN, 24 hours
Description: as §2

MB157 = assay: as above; settings: MB157, TN; 24 hours
Description: as §2

MDA-MB-157 = assay: as above; settings: MDA-MB-157, TN; 24 hours
Description: as §2

MDA-MB-231 [8] = assay: as above; settings: MDA-MB-231, TN; 24 hours
Description: as §2

MDA-MB-436 = assay: as above; settings: MDA-MB-436, TN; 24 hours
Description: as §2

MDA-MB-468 = assay: as above; settings: MDA-MB-468, TN; 24 hours
Description: as §2

MT-3 = assay: as above; settings: MT-3, TN; 24 hours
Description: as §2

Work on `CCN1C(=O)CNc2ncc(-c3ccc(-c4nc[nH]n4)nc3C)nc21` [Compound 1, 1-ethyl-7-(2-methyl-6-(1H-1,2,4-triazol-3-yl)pyridin-3-yl)-3,4-dihydropyrazino[2,3-b]pyrazin-2(1H)-one] yielded a GI50 (CAL-85-1 [1]) of 0.0888 µM, a GI50 (HCC1143 [2]) of 0.4 µM and a GI50 (HCC70 [3]) of 0.0942 µM. For the same compound, the GI50 (MDA-MB-231 [4]) was 0.185 µM, the “CalX (minimum compound concentration required to double the levels of caspase 3/7)” value (from here on “CalX”) (BT-20) was 0.6025 µM and the “CalX” value (BT-549) was ≥10 µM. The “CalX” value (CAL-120) was ≥10 µM, the “CalX” value (CAL-148) was 0.1583 µM and the “CalX” value (CAL-51) was 0.3611 µM. For the same compound, the “CalX” value (CAL-85-1 [5]) was ≥10 µM, the “CalX” value (DU4475) was 0.9448 µM and the “CalX” value (HCC1143 [6]) was ≥10 µM. For the same compound, the “CalX” value (HCC1187) was 0.6418 µM, the “CalX” value (HCC1806) was ≥10 µM and the “CalX” value (HCC1937) was ≥10 µM. The “CalX” value (HCC2157) was 1.3472 µM, the “CalX” value (HCC38) was ≥10 µM and the “CalX” value (HCC70 [7]) was ≥10 µM. For the same compound, the “CalX” value (HDQ-P1) was ≥10 µM, the “CalX” value (HS578T) was ≥10 µM and the “CalX” value (MB157) was ≥10 µM. For the same compound, the “CalX” value (MDA-MB-157) was ≥10 µM, the “CalX” value (MDA-MB-231 [8]) was ≥10 µM and the “CalX” value (MDA-MB-436) was ≥10 µM. For the same compound, the “CalX” value (MDA-MB-468) was ≥10 µM and the “CalX” value (MT-3) was 2.4106 µM.
